Experimental data: article PMC2853757 (Analytical biochemistry, 2009)

Tests used:
[1] = target: V-ATPase (vacuolar proton translocating ATPase) (Saccharomyces cerevisiae, UniProt P25515+P32563); assay: BCECF flow cytometry dose response in living yeast; assay type: cell-based
[2] = target: V-ATPase (vacuolar proton translocating ATPase; catalytic subunit A) (Saccharomyces cerevisiae, UniProt P16140+P17255); assay: ATP hydrolysis; assay type: biochemical
Sequence of V-ATPase (vacuolar proton translocating ATPase; catalytic subunit A) (P17255 2-283): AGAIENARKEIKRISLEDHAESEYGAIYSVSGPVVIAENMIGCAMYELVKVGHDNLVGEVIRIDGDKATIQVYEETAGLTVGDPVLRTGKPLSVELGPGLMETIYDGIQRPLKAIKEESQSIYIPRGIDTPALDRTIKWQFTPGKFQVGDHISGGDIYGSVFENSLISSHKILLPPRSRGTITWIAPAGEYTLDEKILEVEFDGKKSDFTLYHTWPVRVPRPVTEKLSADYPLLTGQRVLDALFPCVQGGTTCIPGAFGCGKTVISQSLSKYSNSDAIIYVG
Sequence of V-ATPase (vacuolar proton translocating ATPase; catalytic subunit A) (P17255 738-1071): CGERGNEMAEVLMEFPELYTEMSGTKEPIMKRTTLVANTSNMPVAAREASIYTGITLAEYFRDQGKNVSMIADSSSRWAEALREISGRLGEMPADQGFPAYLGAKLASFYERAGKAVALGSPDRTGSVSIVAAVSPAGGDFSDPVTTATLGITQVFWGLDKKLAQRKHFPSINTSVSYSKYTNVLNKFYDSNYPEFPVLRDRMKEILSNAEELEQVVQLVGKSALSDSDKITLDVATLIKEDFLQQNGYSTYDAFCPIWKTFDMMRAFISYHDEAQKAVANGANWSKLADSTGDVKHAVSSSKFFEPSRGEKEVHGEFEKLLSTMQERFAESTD
Sequence of V-ATPase (vacuolar proton translocating ATPase; catalytic subunit A) (P16140 2-517): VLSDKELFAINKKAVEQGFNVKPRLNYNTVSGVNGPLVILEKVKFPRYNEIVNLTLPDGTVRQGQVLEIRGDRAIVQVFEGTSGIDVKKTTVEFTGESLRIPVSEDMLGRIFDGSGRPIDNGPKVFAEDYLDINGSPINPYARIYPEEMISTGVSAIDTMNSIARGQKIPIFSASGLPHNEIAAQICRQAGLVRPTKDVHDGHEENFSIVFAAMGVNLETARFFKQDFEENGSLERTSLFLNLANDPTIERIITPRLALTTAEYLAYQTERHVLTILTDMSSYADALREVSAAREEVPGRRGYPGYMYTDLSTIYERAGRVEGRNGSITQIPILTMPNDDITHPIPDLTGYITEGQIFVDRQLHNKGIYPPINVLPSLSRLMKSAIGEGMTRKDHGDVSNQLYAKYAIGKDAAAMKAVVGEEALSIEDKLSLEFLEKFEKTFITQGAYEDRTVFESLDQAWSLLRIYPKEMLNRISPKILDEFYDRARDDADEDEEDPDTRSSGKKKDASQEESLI
Sequence of V-ATPase (vacuolar proton translocating ATPase; catalytic subunit A) (P25515 whole entry partner): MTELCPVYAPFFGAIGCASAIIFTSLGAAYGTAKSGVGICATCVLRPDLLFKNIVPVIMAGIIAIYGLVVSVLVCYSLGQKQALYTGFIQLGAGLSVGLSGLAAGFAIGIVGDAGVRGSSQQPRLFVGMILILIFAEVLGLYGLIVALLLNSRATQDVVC
Sequence of V-ATPase (vacuolar proton translocating ATPase; catalytic subunit A) (P32563 2-840 partner): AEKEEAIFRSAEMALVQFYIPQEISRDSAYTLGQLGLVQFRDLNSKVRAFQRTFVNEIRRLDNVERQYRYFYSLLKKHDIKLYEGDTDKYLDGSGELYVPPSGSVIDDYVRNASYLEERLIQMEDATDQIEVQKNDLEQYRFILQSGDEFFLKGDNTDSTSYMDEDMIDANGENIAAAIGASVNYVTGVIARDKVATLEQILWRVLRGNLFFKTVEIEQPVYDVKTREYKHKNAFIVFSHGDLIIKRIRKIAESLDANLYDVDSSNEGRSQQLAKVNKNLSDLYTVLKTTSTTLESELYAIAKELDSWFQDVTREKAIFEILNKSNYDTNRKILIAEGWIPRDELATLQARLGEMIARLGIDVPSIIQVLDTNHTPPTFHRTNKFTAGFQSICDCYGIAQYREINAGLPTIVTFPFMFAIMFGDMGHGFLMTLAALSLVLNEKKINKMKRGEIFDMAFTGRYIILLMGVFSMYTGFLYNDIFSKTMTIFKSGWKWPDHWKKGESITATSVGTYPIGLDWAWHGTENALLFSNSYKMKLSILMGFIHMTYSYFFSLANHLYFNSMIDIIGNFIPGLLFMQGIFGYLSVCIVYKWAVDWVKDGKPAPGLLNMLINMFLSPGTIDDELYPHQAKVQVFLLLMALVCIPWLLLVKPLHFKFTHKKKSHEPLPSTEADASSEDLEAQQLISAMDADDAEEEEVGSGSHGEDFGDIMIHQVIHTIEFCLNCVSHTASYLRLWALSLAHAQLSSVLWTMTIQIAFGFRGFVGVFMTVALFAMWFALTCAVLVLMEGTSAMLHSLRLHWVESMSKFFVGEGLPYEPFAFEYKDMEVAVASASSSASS

SMILES	EC50 [1] [µM]	EC50 [2] [µM]
C/C=C/[C@H]1O[C@@](O)([C@@H](C)[C@H](O)[C@H](C)[C@H]2OC(=O)/C(OC)=C/C(C)=C/[C@@H](C)[C@@H](O)[C@@H](CC)[C@@H](O)[C@H](C)C/C(C)=C/C=C/[C@@H]2OC)C[C@@H](O[C@H]2C[C@@H](O)[C@H](OC(N)=O)[C@@H](C)O2)[C@@H]1C [concanamycin A]	2.1 to 2.27	–
CCN(CC)C(=S)SSC(=S)N(CC)CC [disulfiram]	–	24.7
